In patent US11331327B2, “Antibacterial use of halogenated salicylanilides” (UNION therapeutics A/S, priority 2014, dated 2022):
In brackets after ≈: the same amount, converted by molar mass. Where two headings read alike, the source gives them in different places.

Tested on: S. aureus clinical isolates and S. aureus ATCC 29213
Assay: MIC assay according to CLSI criteria, Example 2, S. aureus strains
Assay type: cell-based, Staphylococcus aureus
Conditions: Staphylococcus aureus, read-out: MIC
Description: Strains were conserved in Luria Bertani (LB) Broth (S. aureus) or Brain Heart Infusion (BHI) (S. pyogenes) supplemented with glycerol 15% (v/v) at −80° C., and reactivated by isolation on LB (S. aureus) or BHI (S. pyogenes) agar plates. Strains were cultivated in Mueller Hinton (MH) Broth-cation adjusted (S. aureus) or BHI (S. pyogenes). All strains were cultivated aerobically (microaerobically for S. pyogenes strains) at 37° C.
Bacterial cultures were stopped in their exponential growth phase and plates were inoculated with the approximate concentration of 5×10^5 cells per well. Plates were incubated at 37° C. for 18 hours (S. aureus) or 24 hours (S. pyogenes).

`CC(=O)O[C@H]1C[C@@]2(C)[C@@H](C[C@@H](O)[C@H]3[C@@]4(C)CC[C@@H](O)[C@@H](C)[C@@H]4CC[C@@]32C)/C1=C(\CCC=C(C)C)C(=O)O` [Fusidic acid] was tested, and the MIC (ATCC 29213 / MRSA, strain MRSA 15) was > 16 µg/mL, the MIC (ATCC 29213 / MRSA, strain MRSA 16) was 0.25 µg/mL (≈ 0.484 µM) and the MIC (ATCC 29213 / MRSA, strain MRSA 17) was 4 µg/mL (≈ 7.74 µM). The MIC (ATCC 29213 / MRSA, strain MRSA 18) was 0.25 µg/mL (≈ 0.484 µM), the MIC (ATCC 29213 / MRSA, strain MRSA 19) was 0.125 µg/mL (≈ 0.242 µM) and the MIC (ATCC 29213 / MRSA, strain MRSA 20) was 0.125 µg/mL (≈ 0.242 µM). For the same compound, the MIC (ATCC 29213 / MRSA, strain MRSA 21) was 0.125 µg/mL (≈ 0.242 µM), the MIC (ATCC 29213 / MRSA, strain MRSA 22) was > 16 µg/mL and the MIC (ATCC 29213 / MRSA, strain MRSA 23) was 0.25 µg/mL (≈ 0.484 µM). The MIC (ATCC 29213 / MRSA, strain MRSA 24) was 0.25 µg/mL (≈ 0.484 µM), the MIC (ATCC 29213 / MRSA, strain MRSA 25) was 16 µg/mL (≈ 31 µM) and the MIC (ATCC 29213 / MRSA, strain MRSA 26) was 0.5 µg/mL (≈ 0.968 µM). For the same compound, the MIC (ATCC 29213 / MRSA, strain MRSA 27) was 0.25 µg/mL (≈ 0.484 µM), the MIC (ATCC 29213 / MRSA, strain MRSA 27b) was 8 µg/mL (≈ 15.5 µM) and the MIC (ATCC 29213 / MRSA, strain MRSA 28) was 0.06 µg/mL (≈ 0.116 µM). For the same compound, the MIC (ATCC 29213 / MRSA, strain MRSA 29) was 4 µg/mL (≈ 7.74 µM), the MIC (ATCC 29213 / MRSA, strain MRSA 30) was 0.125 µg/mL (≈ 0.242 µM) and the MIC (ATCC 29213 / MRSA, strain MRSA 31) was 0.25 µg/mL (≈ 0.484 µM). The MIC (ATCC 29213 / MRSA, strain MRSA 32) was 0.5 µg/mL (≈ 0.968 µM), the MIC (ATCC 29213 / MRSA, strain MRSA 33) was 0.5 µg/mL (≈ 0.968 µM) and the MIC (ATCC 29213 / MRSA, strain MRSA 34) was 0.25 µg/mL (≈ 0.484 µM). For the same compound, the MIC (ATCC 29213 / MRSA, strain MRSA 35) was 16 µg/mL (≈ 31 µM), the MIC (ATCC 29213 / MRSA, strain MRSA 36) was 8 µg/mL (≈ 15.5 µM) and the MIC (ATCC 29213 / MRSA, strain MRSA 37) was 0.5 µg/mL (≈ 0.968 µM). The MIC (ATCC 29213 / MRSA, strain MRSA 38) was 8 µg/mL (≈ 15.5 µM), the MIC (ATCC 29213 / MRSA, strain MRSA 39) was 8 µg/mL (≈ 15.5 µM) and the MIC (ATCC 29213 / MRSA, strain MRSA 40) was 0.125 µg/mL (≈ 0.242 µM). The MIC (ATCC 29213 / MRSA, strain MRSA 41) was > 16 µg/mL, the MIC (ATCC 29213 / MRSA, strain MRSA 42) was 0.25 µg/mL (≈ 0.484 µM) and the MIC (ATCC 29213 / MRSA, strain MRSA 43) was 0.125 µg/mL (≈ 0.242 µM). It also gave an MIC (ATCC 29213 / MRSA, strain MRSA 44) of 4 µg/mL (≈ 7.74 µM), an MIC (ATCC 29213 / MRSA, strain MRSA 45) of 0.06 µg/mL (≈ 0.116 µM) and an MIC (ATCC 29213 / MRSA, strain MRSA 46) of 0.06 µg/mL (≈ 0.116 µM). It also gave an MIC (ATCC 29213 / MRSA, strain MRSA 47) of 0.06 µg/mL (≈ 0.116 µM), an MIC (ATCC 29213 / MRSA, strain MRSA 48) of 2 µg/mL (≈ 3.87 µM) and an MIC (ATCC 29213 / MRSA, strain MRSA 49) of 0.25 µg/mL (≈ 0.484 µM). It also gave an MIC (ATCC 29213 / MRSA, strain MRSA 50) of 0.03 µg/mL (≈ 0.0581 µM), an MIC (ATCC 29213 / MRSA, strain MRSA 51) of 0.13 µg/mL (≈ 0.252 µM) and an MIC (ATCC 29213 / MRSA, strain MRSA 52) of 0.06 µg/mL (≈ 0.116 µM). For the same compound, the MIC (ATCC 29213 / MRSA, strain MRSA 53) was 0.25 µg/mL (≈ 0.484 µM), the MIC (ATCC 29213 / MRSA, strain MRSA 54) was 0.125 µg/mL (≈ 0.242 µM) and the MIC (ATCC 29213 / MRSA, strain MRSA 55) was 4 µg/mL (≈ 7.74 µM). It also gave an MIC (ATCC 29213 / MRSA, strain MRSA 56) of 0.06 µg/mL (≈ 0.116 µM), an MIC (ATCC 29213 / MRSA, strain MRSA 57) of 0.125 µg/mL (≈ 0.242 µM) and an MIC (ATCC 29213 / MRSA, strain MRSA 58) of 4 µg/mL (≈ 7.74 µM). It also gave an MIC (ATCC 29213 / MRSA, strain MRSA 59) of 0.06 µg/mL (≈ 0.116 µM), an MIC (ATCC 29213 / MRSA, strain MRSA 60) of 8 µg/mL (≈ 15.5 µM) and an MIC (ATCC 29213 / MRSA, strain MRSA 61) of 0.06 µg/mL (≈ 0.116 µM). For the same compound, the MIC (ATCC 29213 / MRSA, strain MRSA 62) was 0.06 µg/mL (≈ 0.116 µM), the MIC (ATCC 29213 / MRSA, strain MRSA 63) was 0.125 µg/mL (≈ 0.242 µM) and the MIC (ATCC 29213 / MRSA, strain MRSA 64) was 0.25 µg/mL (≈ 0.484 µM). For the same compound, the MIC (ATCC 29213 / MRSA, strain MRSA 65) was 0.06 µg/mL (≈ 0.116 µM), the MIC (ATCC 29213 / MRSA, strain MRSA 66) was 0.06 µg/mL (≈ 0.116 µM) and the MIC (ATCC 29213 / MRSA, strain MRSA 67) was 0.25 µg/mL (≈ 0.484 µM). It also gave an MIC (ATCC 29213 / MRSA, strain MRSA 68) of 0.125 µg/mL (≈ 0.242 µM), an MIC (ATCC 29213 / MRSA, strain MRSA 69) of 4 µg/mL (≈ 7.74 µM) and an MIC (ATCC 29213 / MRSA, strain MRSA 70) of 8 µg/mL (≈ 15.5 µM). The MIC (ATCC 29213 / MRSA, strain MRSA 71) was 0.06 µg/mL (≈ 0.116 µM), the MIC (ATCC 29213 / MRSA, strain MRSA 72) was 16 µg/mL (≈ 31 µM) and the MIC (ATCC 29213 / MRSA, strain MRSA 73) was 0.25 µg/mL (≈ 0.484 µM). It also gave an MIC (ATCC 29213 / MRSA, strain MRSA 74) of 0.25 µg/mL (≈ 0.484 µM), an MIC (ATCC 29213 / MRSA, strain MRSA 75) of 0.5 µg/mL (≈ 0.968 µM) and an MIC (ATCC 29213 / MRSA, strain MRSA 76) of 0.25 µg/mL (≈ 0.484 µM). The MIC (ATCC 29213 / MRSA, strain MRSA 77) was 16 µg/mL (≈ 31 µM), the MIC (ATCC 29213 / MRSA, strain MRSA 78) was 0.125 µg/mL (≈ 0.242 µM) and the MIC (ATCC 29213 / MRSA, strain MRSA 79) was 0.5 µg/mL (≈ 0.968 µM). For the same compound, the MIC (ATCC 29213 / MRSA, strain MRSA 80) was 0.125 µg/mL (≈ 0.242 µM), the MIC (ATCC 29213 / MRSA, strain MRSA 81) was 0.25 µg/mL (≈ 0.484 µM) and the MIC (ATCC 29213 / MRSA, strain MRSA 82) was 8 µg/mL (≈ 15.5 µM). It also gave an MIC (ATCC 29213 / MRSA, strain MRSA 83) of 0.06 µg/mL (≈ 0.116 µM), an MIC (ATCC 29213 / MRSA, strain MRSA 84) of 8 µg/mL (≈ 15.5 µM) and an MIC (ATCC 29213 / MRSA, strain MRSA 85) of 4 µg/mL (≈ 7.74 µM). The MIC (ATCC 29213 / MRSA, strain MRSA 86) was > 16 µg/mL, the MIC (ATCC 29213 / MRSA, strain MRSA 87) was 0.125 µg/mL (≈ 0.242 µM) and the MIC (ATCC 29213 / MRSA, strain MRSA 88) was 0.06 µg/mL (≈ 0.116 µM). For the same compound, the MIC (ATCC 29213 / MRSA, strain MRSA 89) was 0.06 µg/mL (≈ 0.116 µM), the MIC (ATCC 29213 / MRSA, strain MRSA 90) was 16 µg/mL (≈ 31 µM) and the MIC (ATCC 29213 / MRSA, strain MRSA 91) was 0.25 µg/mL (≈ 0.484 µM). It also gave an MIC (ATCC 29213 / MRSA, strain MRSA 92) of 8 µg/mL (≈ 15.5 µM), an MIC (ATCC 29213 / MRSA, strain MRSA 93) of 0.02 µg/mL (≈ 0.0387 µM) and an MIC (ATCC 29213 / MRSA, strain MRSA 94) of 0.125 µg/mL (≈ 0.242 µM). The MIC (ATCC 29213 / MRSA, strain MRSA 95) was 8 µg/mL (≈ 15.5 µM), the MIC (ATCC 29213 / MRSA, strain MRSA 96) was 0.125 µg/mL (≈ 0.242 µM) and the MIC (ATCC 29213 / MRSA, strain MRSA 97) was 8 µg/mL (≈ 15.5 µM). It also gave an MIC (ATCC 29213 / MRSA, strain MRSA 98) of 0.06 µg/mL (≈ 0.116 µM), an MIC (ATCC 29213 / MRSA, strain MRSA 99) of 0.125 µg/mL (≈ 0.242 µM) and an MIC (ATCC 29213 / MRSA, strain MRSA 100) of 0.125 µg/mL (≈ 0.242 µM). For the same compound, the MIC (ATCC 29213 / MRSA, strain MRSA 101) was 8 µg/mL (≈ 15.5 µM), the MIC (ATCC 29213 / MRSA, strain MRSA 102) was 0.06 µg/mL (≈ 0.116 µM) and the MIC (ATCC 29213 / MRSA, strain MRSA 103) was 8 µg/mL (≈ 15.5 µM). The MIC (ATCC 29213 / MRSA, strain MRSA 104) was 0.25 µg/mL (≈ 0.484 µM), the MIC (ATCC 29213 / MRSA, strain MRSA 105) was 0.125 µg/mL (≈ 0.242 µM) and the MIC (ATCC 29213 / MRSA, strain MRSA 106) was 0.125 µg/mL (≈ 0.242 µM). The MIC (ATCC 29213 / MRSA, strain MRSA 107) was 0.25 µg/mL (≈ 0.484 µM), the MIC (ATCC 29213 / MRSA, strain MRSA 108) was 4 µg/mL (≈ 7.74 µM) and the MIC (ATCC 29213 / MRSA, strain MRSA 109) was 0.25 µg/mL (≈ 0.484 µM). It also gave an MIC (ATCC 29213 / MRSA, strain MRSA 110) of 0.06 µg/mL (≈ 0.116 µM), an MIC (ATCC 29213 / MRSA, strain MRSA 111) of 8 µg/mL (≈ 15.5 µM) and an MIC (ATCC 29213 / MRSA, strain MRSA 112) of 0.06 µg/mL (≈ 0.116 µM). The MIC (ATCC 29213 / MRSA, strain MRSA 113) was 0.125 µg/mL (≈ 0.242 µM), the MIC (ATCC 29213 / MSSA, strain MSSA 01) was 4 µg/mL (≈ 7.74 µM) and the MIC (ATCC 29213 / MSSA, strain MSSA 02) was 4 µg/mL (≈ 7.74 µM). It also gave an MIC (ATCC 29213 / NEWMAN, strain Newman) of 0.25 µg/mL (≈ 0.484 µM).
